Measurements from patent US20060069132A1, “Azolecarboxamide herbicides” (priority 2004, published 2006).
Where two headings read alike, the source gives them in different places.

How the values were obtained:
[1] = system: kochia; test: Test C pre-/postemergence herbicide test; format: in vivo, Kochia scoparia
Outline: (§1)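 Pre/post spray; non-phytotoxic solvent + surfactant. Post-timing 1–4 leaves, 2–18 cm. Read-out: visual % control vs untreated, day 12–14, greenhouse.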

[2] = system: cocklebur; test: Test C pre-/postemergence herbicide test; format: in vivo, Xanthium strumarium
Outline: as §1

[3] = system: ducksalad; test: Test C flooded paddy test; format: in vivo, Heteranthera limosa
[4] = system: yellow nutsedge; test: Test C pre-/postemergence herbicide test; format: in vivo, Cyperus esculentus
Outline: as §1

[5] = system: bermudagrass; test: Test C pre-/postemergence herbicide test; format: in vivo, Cynodon dactylon
Outline: as §1

[6] = system: large crabgrass; test: Test C pre-/postemergence herbicide test; format: in vivo, Digitaria sanguinalis
Outline: as §1

[7] = system: velvetleaf; test: Test B pre-/postemergence herbicide test; format: in vivo, Abutilon theophrasti; settings: for pest or weed control at 125 g/ha / pest or weed control at 500 g/ha: Abutilon theophrasti, 336 h; for Plant response rating (0 to 100 scale), Velvetleaf: 0 is no effect
Outline: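 Response was scored visually 13 to 15 days after treatment against untreated greenhouse controls, 0 meaning no effect and 100 complete control. Formulations (solvent mixture plus surfactant) went onto soil after planting, onto foliage of 1- to 4-leaf plants, and onto 2-leaf plants in a flooded paddy set including rice and barnyardgrass.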

[8] = system: soybean; test: Test C pre-/postemergence herbicide test; format: in vivo, Glycine max
Outline: as §1

[9] = 62 g ai/ha, preemergence, scale 0 to 100
[10] = 125 g ai/ha, scale 0 (no effect) to 100 (complete control), visual, 12 to 14 days, preemergence
[11] = 250 g ai/ha, scale 0-100, preemergence
[12] = 500 g ai/ha, scale 0 to 100 (0 no effect, 100 complete control), visual, 12 to 14 days, preemergence
[13] = Preemergence, 500 g ai/ha, scale 0 to 100, 0 no effect, 100 complete control
[14] = 62 g ai/ha, preemergence, scale 0 to 100, 0 no effect, 100 complete control
[15] = 125 g ai/ha, visual rating, scale 0 (no effect) to 100 (complete control), postemergence
[16] = Postemergence, 250 g ai/ha, scale 0 to 100, 0 no effect, 100 complete control
[17] = postemergence, 125 g ai/ha, scale 0 to 100
[18] = postemergence, 62 g ai/ha, scale 0 to 100
[19] = postemergence, 31 g ai/ha, scale 0 to 100
[20] = 125 g ai/ha, 100 is complete control, preemergence
[21] = Postemergence, 500 g ai/ha, scale 0 (no effect) to 100 (complete control)

CCN(C)C(=O)c1ccc(F)c(NC(=O)C2CC(C(C)(C)C)=NN2CC)c1 (racemic) [Compound 307]
Plant response rating, Kochia [1, 9]: 100
Plant response rating, Kochia [1, 10]: 100
Plant response rating, Kochia [1, 11]: 100
Plant response rating, Kochia [1, 12]: 100
Plant response rating, Cocklebur [2, 9]: 0
Plant response rating, Cocklebur [2, 10]: 30
Plant response rating, Cocklebur [2, 11]: 35
Cocklebur plant response rating [2, 13]: 75
Ducksalad plant response rating ([3]; 62 g ai/ha, scale 0 to 100): 60
Ducksalad plant response rating ([3]; 125 g ai/ha, scale 0 to 100 (0 no effect, 100 complete control)): 70
Ducksalad plant response rating ([3]; 250 g ai/ha, scale of 0 to 100, 0 is no effect, 100 is complete control): 90
Plant response rating, Ducksalad ([3]; 500 g ai/ha, visual rating after 12 to 14 days, scale 0 to 100 (0 no effect, 100 complete control)): 90
Plant response rating, Nutsedge, Yellow [4, 9]: 5
Plant response rating, Nutsedge, Yellow [4, 10]: 20
Plant response rating, Nutsedge, Yellow [4, 11]: 50
Plant response rating, Nutsedge, Yellow [4, 12]: 50
Plant response rating, Bermudagrass [5, 14]: 90
Plant response rating, Bermudagrass [5, 10]: 100
Plant response rating, Bermudagrass [5, 11]: 100
Bermudagrass plant response rating [5, 13]: 100
Plant response rating, Crabgrass, Large [6, 9]: 80
Plant response rating, Crabgrass, Large [6, 10]: 100
Plant response rating, Crabgrass, Large [6, 11]: 100
Plant response rating, Crabgrass, Large [6, 12]: 100
Velvetleaf plant response rating [7, 15]: 10
Plant response rating, Velvetleaf ([7]; 500 g ai/ha, visual rating, 0 = no effect, 100 = complete control, preemergence): 100
Velvetleaf plant response rating ([7]; postemergence, 500 g ai/ha, scale 0 to 100, 0 is no effect, 100 is complete control): 60
Plant response rating, Soybean [8, 9]: 40
Plant response rating, Soybean [8, 11]: 80
Plant response rating, Soybean [8, 12]: 100

CCc1nn(C(C)(C)C)cc1C(=O)Nc1cccc(C(=O)N(CC)CC)c1 [Compound 182, N-[3-[(diethylamino)carbonyl]phenyl]-1-(1,1-dimethylethyl)-3-ethyl-1H-pyrazole-4-carboxamide]
pest or weed control at 62 g/ha ([1]; Bassia scoparia, pre-emergence, 62 g ai/ha, preemergence, scale 0 to 100, read-out: Plant response rating, Kochia): 0%
pest or weed control at 125 g/ha ([1]; Bassia scoparia, pre-emergence, 125 g ai/ha, scale 0 (no effect) to 100 (complete control), visual, 12 to 14 days, read-out: Plant response rating, Kochia): 60%
Kochia plant response rating [1, 13]: 90
pest or weed control at 62 g/ha ([2]; Xanthium strumarium, pre-emergence, 312 h, 62 g ai/ha, preemergence, scale 0 to 100, read-out: Plant response rating, Cocklebur): 0%
pest or weed control at 125 g/ha ([2]; Xanthium strumarium, pre-emergence, 312 h, 125 g ai/ha, scale 0 (no effect) to 100 (complete control), visual, 12 to 14 days, read-out: Plant response rating, Cocklebur): 0%
pest or weed control at 250 g/ha ([2]; Xanthium strumarium, pre-emergence, 312 h, 250 g ai/ha, scale 0 to 100 (0 no effect, 100 complete control), visual, 12 to 14 days, read-out: Plant response rating, Cocklebur): 0%
pest or weed control at 500 g/ha ([2]; Xanthium strumarium, pre-emergence, 312 h, Preemergence, 500 g ai/ha, scale 0 to 100, 0 no effect, 100 complete control, read-out: Cocklebur plant response rating): 0%
pest or weed control at 62 g/ha ([4]; Cyperus, pre-emergence, 62 g ai/ha, preemergence, scale 0 to 100, read-out: Plant response rating, Nutsedge, Yellow): 0%
pest or weed control at 125 g/ha ([4]; Cyperus, pre-emergence, 125 g ai/ha, scale 0 (no effect) to 100 (complete control), visual, 12 to 14 days, read-out: Plant response rating, Nutsedge, Yellow): 0%
Nutsedge, Yellow plant response rating [4, 13]: 0
pest or weed control at 62 g/ha ([5]; Cynodon dactylon, pre-emergence, 312 h, 62 g ai/ha, preemergence, scale 0 to 100, 0 no effect, 100 complete control, read-out: Plant response rating, Bermudagrass): 20%
pest or weed control at 125 g/ha ([5]; Cynodon dactylon, pre-emergence, 312 h, 125 g ai/ha, scale 0 (no effect) to 100 (complete control), visual, 12 to 14 days, read-out: Plant response rating, Bermudagrass): 75%
pest or weed control at 250 g/ha ([5]; Cynodon dactylon, pre-emergence, 312 h, 250 g ai/ha, scale 0 to 100 (0 no effect, 100 complete control), visual, 12 to 14 days, read-out: Plant response rating, Bermudagrass): 90%
pest or weed control at 500 g/ha ([5]; Cynodon dactylon, pre-emergence, 312 h, Preemergence, 500 g ai/ha, scale 0 to 100, 0 no effect, 100 complete control, read-out: Bermudagrass plant response rating): 95%
pest or weed control at 62 g/ha ([6]; Digitaria sanguinalis, pre-emergence, 312 h, 62 g ai/ha, preemergence, scale 0 to 100, read-out: Plant response rating, Crabgrass, Large): 0%
pest or weed control at 125 g/ha ([6]; Digitaria sanguinalis, pre-emergence, 312 h, 125 g ai/ha, scale 0 (no effect) to 100 (complete control), visual, 12 to 14 days, read-out: Plant response rating, Crabgrass, Large): 25%
pest or weed control at 250 g/ha ([6]; Digitaria sanguinalis, pre-emergence, 312 h, 250 g ai/ha, scale 0 to 100 (0 no effect, 100 complete control), visual, 12 to 14 days, read-out: Plant response rating, Crabgrass, Large): 75%
Crabgrass, Large plant response rating [6, 13]: 100
pest or weed control at 125 g/ha ([7]; post-emergence, postemergence, 125 g ai/ha, visual rating, scale 0 (no effect) to 100 (complete control), read-out: Velvetleaf plant response rating): 0%
pest or weed control at 500 g/ha ([7]; post-emergence, postemergence, 500 g ai/ha, visual rating, scale 0 (no effect) to 100 (complete control), read-out: Velvetleaf plant response rating): 60%
pest or weed control at 125 g/ha ([7]; pre-emergence, 125 g ai/ha, 0 = no effect, 100 = complete control, read-out: Velvetleaf plant response rating (0 to 100 scale)): 0%
pest or weed control at 500 g/ha ([7]; pre-emergence, 500 g ai/ha, visual rating 0-100, 0 no effect, 100 complete control, read-out: Plant response rating, Velvetleaf): 70%
plant injury at 62 g/ha ([8]; Glycine max, pre-emergence, 62 g ai/ha, preemergence, scale 0 to 100, read-out: Plant response rating, Soybean): 0%
plant injury at 125 g/ha ([8]; Glycine max, pre-emergence, 125 g ai/ha, scale 0 (no effect) to 100 (complete control), visual, 12 to 14 days, read-out: Plant response rating, Soybean): 0%
Soybean plant response rating [8, 13]: 15

CCOC(=O)c1cccc(NC(=O)c2nn(C(C)(C)CC)nc2CC)c1 [Compound 375]
Plant response rating, Kochia [1, 9]: 80
Plant response rating (0 = no effect, 100 = complete control), Kochia ([1]; 125 g ai/ha, preemergence): 100
Plant response rating, Kochia [1, 11]: 100
Plant response rating, Kochia [1, 16]: 90
Plant response rating, Kochia [1, 17]: 85
Plant response rating, Kochia [1, 18]: 70
Plant response rating, Cocklebur [2, 9]: 0
Plant response rating (0 = no effect, 100 = complete control), Cocklebur ([2]; 125 g ai/ha, preemergence): 0
Plant response rating, Cocklebur [2, 11]: 0
Plant response rating, Cocklebur [2, 16]: 15
Plant response rating, Cocklebur [2, 17]: 10
Plant response rating, Cocklebur [2, 19]: 0
Plant response rating, Cocklebur [2, 18]: 10
Plant response rating, Nutsedge, Yellow ([4]; 31 g ai/ha, scale 0 to 100, last section of Table C, preemergence): 0
Plant response rating, Nutsedge, Yellow [4, 9]: 0
Plant response rating (0 = no effect, 100 = complete control), Nutsedge, Yellow ([4]; 125 g ai/ha, preemergence): 0
Plant response rating, Nutsedge, Yellow [4, 11]: 0
Plant response rating, Bermudagrass ([5]; 31 g ai/ha, scale 0 to 100, 0 no effect, 100 complete control, last section of Table C (species set of preemergence test)): 95
Plant response rating, Bermudagrass [5, 14]: 100
Plant response rating (0 = no effect, 100 = complete control), Bermudagrass ([5]; 125 g ai/ha, preemergence): 100
Plant response rating, Bermudagrass [5, 11]: 100
Plant response rating, Bermudagrass [5, 16]: 60
Plant response rating, Bermudagrass [5, 17]: 30
Plant response rating, Bermudagrass [5, 19]: 5
Plant response rating, Bermudagrass [5, 18]: 20
Plant response rating, Crabgrass, Large [6, 9]: 60
Plant response rating (0 = no effect, 100 = complete control), Crabgrass, Large ([6]; 125 g ai/ha, preemergence): 70
Plant response rating, Crabgrass, Large [6, 11]: 100
Plant response rating, Crabgrass, Large [6, 16]: 20
Plant response rating, Crabgrass, Large [6, 17]: 20
Plant response rating, Crabgrass, Large [6, 18]: 5
Plant response rating (0 to 100 scale), Velvetleaf [7, 20]: 30
Velvetleaf plant response rating [7, 15]: 70
Velvetleaf plant response rating [7, 21]: 90
Plant response rating, Soybean [8, 9]: 0
Plant response rating (0 = no effect, 100 = complete control), Soybean ([8]; 125 g ai/ha, preemergence): 0
Plant response rating, Soybean [8, 11]: 0

C=CCNC(=O)c1cccc(NC(=O)c2nn(C(C)(C)C)nc2CC)c1 [Compound 414]
Plant response rating, Kochia [1, 9]: 60
Plant response rating (0 = no effect, 100 = complete control), Kochia ([1]; 125 g ai/ha, preemergence): 75
Plant response rating, Kochia [1, 11]: 80
Plant response rating, Kochia [1, 12]: 100
Plant response rating, Cocklebur [2, 9]: 0
Plant response rating (0 = no effect, 100 = complete control), Cocklebur ([2]; 125 g ai/ha, preemergence): 15
Plant response rating, Cocklebur [2, 11]: 20
Plant response rating, Cocklebur [2, 12]: 30
Plant response rating, Nutsedge, Yellow [4, 9]: 0
Plant response rating (0 = no effect, 100 = complete control), Nutsedge, Yellow ([4]; 125 g ai/ha, preemergence): 0
Plant response rating, Nutsedge, Yellow [4, 12]: 20
Plant response rating, Bermudagrass [5, 14]: 100
Plant response rating (0 = no effect, 100 = complete control), Bermudagrass ([5]; 125 g ai/ha, preemergence): 100
Plant response rating, Bermudagrass [5, 11]: 100
Plant response rating, Bermudagrass [5, 12]: 100
Plant response rating, Crabgrass, Large [6, 9]: 100
Plant response rating (0 = no effect, 100 = complete control), Crabgrass, Large ([6]; 125 g ai/ha, preemergence): 100
Plant response rating, Crabgrass, Large [6, 11]: 100
Plant response rating, Crabgrass, Large [6, 12]: 100
Plant response rating (0 to 100 scale), Velvetleaf [7, 20]: 70
Velvetleaf plant response rating [7, 21]: 70
Velvetleaf plant response rating [7, 17]: 50
Plant response rating, Soybean [8, 9]: 0
Plant response rating (0 = no effect, 100 = complete control), Soybean ([8]; 125 g ai/ha, preemergence): 20
Plant response rating, Soybean [8, 12]: 65
